# Values joined by “and” are separate entries in the source; they are usually repeats but may differ in a detail not shown here. Identical values can stand only once. “Also recorded” adds a separate entry of the source.
# Key:
# [1] = cited from earlier work
# [2] = test system: subjects with CHD having decreased RBC K+ content; assay: Single-Blind Trial of Amiloride in Coronary Heart Disease During 2-Year Follow-Up; type: in vivo, human
# Protocol: Subjects were evaluated by clinical (CCS angina Class, dyspnea, and arrhythmia). Other non CHD causes of chest pain, dyspnea, and arrhythmia had been ruled out. Safety control were serial ECG, non-invasive hemodynamics (DynaPulse 200A, CA, USA), Ion Transport Study (plasma and RBC electrolytes, 12-hour urine volume and electrolyte excretion, and plasma and urine creatinine and osmolality), BIA for Body Composition Analysis and estimation of Total Body K^+ (Quantum X, RJL Systems), and Clinical Biochemistry (FPG, Lipids, Uric acid), were measured at 1, 3, 6, 12, 18, 24 months follow-up period.
# After written consent, each patient entered this single-blind trial directed to reverse or improve angina and other symptoms of CHD, as well as the ECG alterations of ischemia, and if possible in long-term assay, on improved LV motion/contractility in the echocardiography studies.
# All cases had: a) Serial ECG for LVH by Cornell or Sokolow-Lyon Criteria (QRS duration times Cornell voltage: [R aVL+ SV3, with 6 mm added in women, >2440 mm×ms], Sokolow-Lyon voltage: [SV1+RV5/V6]> 38 mm; along with LV strain pattern [classical ST-segment depressed, with inverted T-waves], or LVH voltage criteria with mild LV strain pattern (isoelectric, biphasic or non-symmetrical negative T-waves, without ST-segment depression), and ECG criteria for infarction and/or ischemia (Q-waves from previous AMI, decreased R-wave height, non-progressive R-wave voltages in precordial leads, ST-segment elevation […] often referred as injury current, ST-segment depression […] often downsloping from the J point, rectification of the ST segment, and isoelectric, biphasic, negative or inverted T-waves, intraventricular conduction disturbance, and arrhythmias); b) Non-invasive hemodynamic study (DP200M) for cardiac parameters (LV Ejection Time [LVET], LV dP/dT (LV delta pressure-time), Cardiac output and index (CO, Cl), Stroke Volume (SV), Pulse Wave Analysis (PWA) of Central Aortic Blood Pressure [BP], Aortic Systolic (SBP), Diastolic (DBP) and mean (m) BP, Aortic augmentation index; inflection point and reflected wave analysis, Systemic Vascular Resistance and Compliance (SVR/SVC), and Brachial Artery Distensibility (BAD), Brachial Artery Compliance (BAC); c) Ion Transport Studies for RBC (K^+, Na^+) plasma (K^+, Na^+, Cl^−, ICa^2+, Mg^2+), and 12-hours night urinary volume (K^+, Na^+, Cl^−, pH), d) Bio-Impedance Analysis (BIA, Quantum X, RJL Systems, MI, USA) for Total body Potassium, Total body water/Extracellular Water, Fat Mass (FM) and Fat-Free Mass (FFM) and e) Echocardiography was obtained at entry, 6 and 12, 24 months periods.
# The statistical analysis was performed using the Student's t-test and analysis of variance. To reduce the probability of significant differences arising by chance, Bonferroni's correction was applied following analysis of variance. All measurement are presented as the mean±S.D., and differences were considered significant when p<0.05.
# [3] = test system: cell K uptake by RBC; assay: long-term assay from our laboratory: cell K uptake by RBC (results not shown)
structure (smiles),measurement,setting,value
"Cl.NC(N)=NC(=O)c1nc(Cl)c(N)nc1N.O.O [Amiloride, 3,5-diamino-6-chloro-N-(diaminomethylene) pyrazinecarboxamide monohydrochloride, dihydrate]",hyperkalemia as secondary effect,[1]; as disclosed in various medical textbooks,hyperkalemia is a common secondary effect
same,hyperkalemia,"[1]; intravenous doses of Amiloride (1 mg/Kg), subjects with chronic kidney disease, Levy Y. et al. 2008",absence of hyperkalemia
same,excretion,"[1]; upon ingestion, humans",excreted from the kidneys unchanged
same,"Days for Improvement, Percentage (%)","[2]; 2-year trial, n=52",86.5%
same,"EGG Alterations: Improved Changes, Number","[2]; 2-year trial, n=52",23
same,"EGG Alterations: Improved Changes, Percentage (%)","[2]; 2-year trial, n=52",44.2%
same,"EGG Alterations: Reverted to Normal, Number","[2]; 2-year trial, n=52",18
same,"EGG Alterations: Reverted to Normal, Percentage (%)","[2]; 2-year trial, n=52",34.5%
same,"EGG Alterations: Unchanged/Worst, Number","[2]; 2-year trial, n=52",10
same,"EGG Alterations: Unchanged/Worst, Percentage (%)","[2]; 2-year trial, n=52",19.2%
same,EGG Alterations: Weeks for Improvement,"[2]; 2-year trial, n=52",3.4 ± 1.5 Weeks
same,"EGG Alterations: Weeks for Improvement, Percentage (%)","[2]; 2-year trial, n=52",61%
same,"Echocardiographic Changes: Altered Hypokinesia, Number","[2]; 2-year trial, n=52",34
same,"Echocardiographic Changes: Altered Hypokinesia, Percentage (%)","[2]; 2-year trial, n=52",65.5%
same,"Echocardiographic Changes: Normal Contractility, Number","[2]; 2-year trial, n=52",18
same,"Echocardiographic Changes: Normal Contractility, Percentage (%)","[2]; 2-year trial, n=52",34.5%
same,"Echocardiographic Changes: Reversed Hypokinesia, Number","[2]; 2-year trial, n=52",27
same,"Echocardiographic Changes: Reversed Hypokinesia, Percentage (%)","[2]; 2-year trial, n=52",52%
same,"Echocardiographic Changes: Unchanged Hypokinesia, Number","[2]; 2-year trial, n=52",7
same,"Echocardiographic Changes: Unchanged Hypokinesia, Percentage (%)","[2]; 2-year trial, n=52",13.5%
same,"Free of Angina (1-2 years), Number","[2]; 2-year trial, n=52",37
same,"Free of Angina (1-2 years), Percentage (%)","[2]; 2-year trial, n=52",71.2%
same,"New CVD Events: ACS, Number","[2]; 2-year trial, n=52",7
same,"New CVD Events: ACS, Percentage (%)","[2]; 2-year trial, n=52",13.5%
same,"New CVD Events: AMI/Stroke/Death, Number","[2]; 2-year trial, n=52",0
same,"New CVD Events: AMI/Stroke/Death, Percentage (%)","[2]; 2-year trial, n=52",0%
same,"New CVD Events: None, Number","[2]; 2-year trial, n=52",41
same,"New CVD Events: None, Percentage (%)","[2]; 2-year trial, n=52",79%
same,"New CVD Events: Ventricular Arrhythmias, Number","[2]; 2-year trial, n=52",5
same,"New CVD Events: Ventricular Arrhythmias, Percentage (%)","[2]; 2-year trial, n=52",9.6%
same,"Reversion of Angina, Number","[2]; 2-year trial, n=52",43
same,"Reversion of Angina, Percentage (%)","[2]; 2-year trial, n=52",82.7%
same,Subjects with Angina: Days for Improvement,"[2]; 2-year trial, n=52, Amiloride 5 to 10 mg/day",6.2 ± 3.5 days
same,"ECG change, single subject FIG. 14A","[2]; Diabetic, inferior AMI, during admission in the Amiloride trial",improvement in the subject's antero-lateral ischemia
same,"ECG after withdrawal, single subject FIG. 14B","[2]; Diabetic, two months after withdrawal of Amiloride treatment",ECG alterations marked with arrows indicative of acute coronary syndrome and ventricular arrhythmias
same,"ECG change, single subject FIG. 12B","[2]; Person, 1-year post infarction, 5 months Amiloride, calcium and statins","significant ECG improvement of ST-segment, and T-waves (V1-V6)"
same,"ECG, single subject FIG. 12C","[2]; Person, 18 months post AMI, Amiloride, calcium and statins, no other medication",essentially a normal ECG trace
same,"Duke Treadmill Scores, single subject FIG. 12C","[2]; Person, 18 months post AMI, Amiloride, calcium and statins, monohydrochloride, dihydrate",6.23 and 5.49
same,"ECG change, single subject FIG. 13B","[2]; Person, diabetes, angina, 5-months of Amiloride and statins",improvement of ischemic changes
same,"DT Score, single subject FIG. 13B","[2]; Person, 5-months of Amiloride and statins, score −3 before",2.3
same,"ECG after withdrawal, single subject FIG. 13C","[2]; Person, after 6-months without Amiloride, optimal angina and diabetes medications",recurrence of ECG alterations
same,"ECG after re-start, single subject FIG. 13C","[2]; Person, three months after Amiloride was reinitiated",normal without ischemic changes
same,"ECG change, single subject FIG. 11C","[2]; person, infarction, angina, heart failure, 2-months Amiloride (5 mg) and calcium plus other medications",rapid reversion of ST-T alterations (V2-V6)
same,"angina and heart failure symptoms, single subject FIG. 11C","[2]; person, 2-months Amiloride (5 mg) and calcium, monohydrochloride, dihydrate",free of angina or symptoms of heart failure; also recorded: free of angina and symptoms of heart failure
same,"Duke Treadmill Score, single subject FIG. 11C","[2]; person, 2-months Amiloride (5 mg) and calcium, score −3 before entering trial",+4.3
same,hereditable defect in cell K uptake by RBC,[3],reverses a hereditable defect in cell K uptake by RBC

# From US20090062309A1, “Therapeutic compositions for the treatment of cardiovascular diseases and methods for use therefor” (priority 2007, published 2009)
